Measurements taken from PubChem BioAssay AID686920 (Broad Institute, 2013).

tested on: A673 NR0B1-luciferase reporter, viability-normalised luminescence; experiment: suppressors of NR0B1-promoter luciferase reporter, dose response, EWS/Fli inhibitor project, luciferase luminescence, A673 cells, cherry-pick (AID 686920)

Compound	AC35
C[C@@H]1CN([C@H](C)CO)C(=O)CCCn2nncc2CO[C@H]1CN(C)Cc1ccc(Oc2ccccc2)cc1	34.1 µM
O=C(O)c1cccc(N/N=C/c2ccc(OC(F)(F)F)cc2)c1	2.26 µM
O=C(/C=C/c1cc(Br)ccc1O)c1ccco1	10.7 µM
O=C(O)CN1C(=O)/C(=C\c2ccccc2OCc2ccc(Cl)cc2Cl)SC1=S	13.7 µM
O=C(Nc1nc(-c2ccc(F)c(F)c2)cs1)c1ccc(OCC2CCCO2)cc1 (stereo not drawn)	30 µM
CN(C)CC1CCC/C(=C\c2ccc(OC(=O)c3ccc(Cl)cc3)cc2)C1=O (stereo not drawn)	5.76 µM
C[C@]12CCC3C(CCC4=CC(O)CC[C@@]43/C=N/O)C1(O)CCC2C1=CC(=O)OC1 (stereo partly drawn)	0.529 µM
O=C(Nc1cccc(S(=O)(=O)N2CCCC2)c1)c1ccc(Cl)nc1	8.45 µM
CC(C)(C)C(=O)Cn1ncc(Cl)c(Cl)c1=O	12.9 µM
O=c1c2ccccc2oc2cc(C#CC3(O)CCCCC3)ccc12	4.33 µM
CC(C)c1ccccc1NC(=O)COC(=O)CCN1C(=O)/C(=C\C=C\c2ccccc2)SC1=S	1.9 µM
COc1ccccc1-c1ccc(OCCCN2CCC(C(O)(c3ccccc3)c3ccccc3)CC2)cc1	13.3 µM
CN1C/C(=C/c2ccsc2)C(=O)/C(=C/c2ccsc2)C1	9.82 µM
CCOc1ccc(N=C2C(=O)Nc3ccc(C)c(Br)c32)cc1	26.4 µM
C[C@]12CC[C@H]3[C@@H](CC[C@]4(O)C[C@@H](O)CC[C@]34C=O)[C@@]1(O)CC[C@@H]2C1=CC(=O)OC1	0.626 µM
COC(=O)Cc1ccc(NC(=O)c2ccccc2Cl)cc1	2.6 µM
COc1ccc(Cl)cc1S(=O)(=O)Nc1ccc2c(c1)n(C)c(=O)n2C	31.3 µM
CCNC(=O)c1cc2c(c(-c3cccc(-c4cccc(OC)c4)c3)n1)[C@H](CCO)N([S@@](=O)C(C)(C)C)C2	6.78 µM
CC1=NN(c2ccccc2)C(=O)/C1=C\C=C\c1ccccc1	6.98 µM
C[C@H]1CN([C@@H](C)CO)C(=O)c2cccc(NC(=O)CCCCCC(=O)Nc3ccccc3N)c2O[C@@H]1CN(C)Cc1ccc2c(c1)OCO2	15.2 µM
O=c1c(Cl)cc(Cl)nn1-c1ccccc1	8.95 µM
O=C(Nc1ccc(NC(=O)c2cc3ccccc3o2)cc1)c1ccc2c(c1)OCCO2	13.2 µM
CN(c1ccc(NC(=O)CCc2c[nH]c3ccccc23)cc1)c1ccccn1	4.96 µM
Cc1ccc(S(=O)(=O)Nc2ccc3c(c2)C(=O)N([C@@H](C)CO)C[C@@H](C)[C@H](CN(C)Cc2ccc(C(F)(F)F)cc2)OCCCC[C@H](C)O3)cc1	7.44 µM

Compound	AC35
Cc1cc2c(C(C)C)c(O)c(O)c(C=O)c2c(O)c1-c1c(C)cc2c(C(C)C)c(O)c(O)c(C=O)c2c1O	7.16 µM
CCN1/C(=C/C=C/c2oc3ccc(-c4ccccc4)cc3[n+]2CC)Oc2ccc(-c3ccccc3)cc21	2.49 µM
Cc1ccc(NC(=O)CCN2CCCCC2)cc1	26.1 µM
Cc1ccccc1NC(=O)C(=Cc1ccc(C(=O)O)cc1)C(=O)Nc1ccccc1C	5.63 µM
CC(C)N1C/C(=C/c2cccnc2)C(=O)/C(=C/c2cccnc2)C1	10.8 µM
O=C(O)c1cccc(N/N=C/c2cccs2)c1	1.25 µM
COc1ccc(NS(=O)(=O)c2cc(NC(=O)CNC(=O)c3cccc(OC)c3)ccc2C)cc1	66.3 µM
C=C(C(=O)c1ccccc1)C(C(=C)C(=O)c1ccccc1)c1ccc(OC)cc1	4.37 µM
COC(=O)c1cccc(NC(=O)NC(=O)c2ccc(Cl)cc2)c1	0.225 µM
O=C(O)c1ccccc1C(=O)Nc1ccc(Oc2cccc3ccccc23)cc1	2.28 µM
N#C[C@@H]1[C@H](c2ccc(C#Cc3ccccc3F)cc2)[C@@H](CO)N1C(=O)c1cccnc1	5.46 µM
O=C(O)c1ccc2cc(-c3ccccc3)[nH]c2c1	6.18 µM
Oc1c(Cl)cc(Cl)c(Cl)c1Cc1c(O)c(Cl)cc(Cl)c1Cl	35.3 µM
N#C[C@H]1[C@H](c2ccc(-c3ccccc3F)cc2)[C@@H](CO)N1C(=O)c1ccccn1	9.49 µM
COc1ccc(S(=O)(=O)N2CC[C@@H]3[C@@H](CO)Nc4ccc(-c5ccc(C#N)cc5)cc4[C@@H]32)cc1	0.625 µM
C/C(=N\Nc1cccc2cccnc12)c1ccccn1	19 µM
Cc1ccsc1/C=N/Nc1ccc(C(=O)O)cc1	3.1 µM
CCOC(=O)C1CCCCN1C(=O)CCc1c(C)nc2cc(-c3ccccc3)nn2c1C (stereo not drawn)	1.16 µM
C[C@@H]1CN([C@@H](C)CO)C(=O)c2cccc(NS(=O)(=O)c3ccc(F)cc3)c2O[C@@H]1CN(C)Cc1ccc(C(=O)Nc2ccccc2N)cc1	6.97 µM
OCCN1CCN(C(=S)c2ccc(-c3ccccc3)cc2)CC1	1.94 µM
CN1C(=O)c2cc(NC(=O)c3ccc(Cl)cc3)ccc2OC[C@@H]2O[C@@H](CC(=O)NCc3cccc(F)c3)CC[C@H]21	7.86 µM
COc1ccc(/C=C2\Oc3ccccc3C2=O)cc1	8.51 µM
CC(C)CC#Cc1ccc([C@@H]2[C@@H](CO)N3CCCCN(S(=O)(=O)c4ccc(F)cc4)C[C@H]23)cc1	14.1 µM
CC[C@@H]1C[C@H]2CC[C@H](O2)[C@H](C)C(=O)O[C@@H](C)C[C@@H]2CC[C@@H](O2)[C@@H](C)C(=O)O[C@H](C)C[C@H]2CC[C@H](O2)[C@H](C)C(=O)O[C@@H](C)C[C@@H]2CC[C@@H](O2)[C@@H](C)C(=O)O1	0.0992 µM

Compound	AC35
O=C(Nc1ccc(F)cc1)N1CCCCN2[C@@H](CO)[C@H](c3ccc(C4=CCCCC4)cc3)[C@@H]2C1	13.3 µM
C[C@@H]1CN([C@@H](C)CO)C(=O)c2cc(N(C)C)ccc2O[C@H]1CN(C)Cc1ccc(C(=O)Nc2ccccc2N)cc1	12.7 µM
Cc1nc2cc(-c3ccc(Cl)cc3)nn2c(C)c1CCC(=O)NC(C)c1ccc2c(c1)OCCO2 (stereo not drawn)	0.847 µM
CCOc1ccc2nc(NC3=NC(c4ccc(OC)cc4)CC(=O)N3)nc(C)c2c1 (stereo not drawn)	9.3 µM
COCC(=O)Nc1ccc2c(c1)[C@@H]1C[C@@H](CC(=O)NCc3ccc(-c4ccccc4)cc3)O[C@@H](CO)[C@@H]1O2	10.1 µM
CC(C)(C)c1ccc(Oc2ccc(N)cn2)cc1	1.2 µM
COc1cc(OC)cc(-c2cc3nc(C)c(CCC(=O)NCc4ccccc4)c(C)n3n2)c1	3.44 µM
C[C@H](CO)N1C[C@H](C)[C@H](CN(C)CC2CCCCC2)Oc2ccc(NC(=O)CCCCCC(=O)Nc3ccccc3N)cc2CC1=O	4.96 µM
O=c1cc(CN2CCN(Cc3ccccc3)CC2)c2ccc(O)c(O)c2o1	23.3 µM
CN1C(=O)c2cc(NC(=O)c3ccc(C(F)(F)F)cc3)ccc2OC[C@@H]2O[C@@H](CC(=O)NC3Cc4ccccc4C3)CC[C@H]21	8.33 µM
COc1ccc2nc(-c3ccc(F)cc3)sc2c1	8.38 µM
O=C1Nc2cc(C(=O)NCCN3CCCCCC3)ccc2S/C1=C\c1ccccc1	11.6 µM
CCc1nc(N)nc(N)c1-c1ccc(Cl)cc1	5.12 µM
COc1cc(C(=O)N2CCC(N3CCN(C)CC3)CC2)ccc1Nc1ncc2c(n1)N(C)c1ccccc1C(=O)N2C	4.75 µM
CCCNC(=O)N1[C@H](C#N)[C@H](c2ccc(C#Cc3cccc(F)c3)cc2)[C@H]1CO	8.47 µM
C[C@@H]1O[C@@H](O[C@@H]2C=C3CCC4C(CC[C@]5(C)[C@@H](c6ccc(=O)oc6)CC[C@]45O)[C@@]3(C)CC2)[C@H](O)[C@H](O)[C@H]1O (stereo partly drawn)	< 0.09 µM
COc1ccc(S(=O)(=O)Nc2cccc3c2O[C@H](CN(C)Cc2ccc(C(=O)Nc4ccccc4N)cc2)[C@H](C)CN([C@@H](C)CO)C3=O)cc1	5.64 µM
CN=c1scc(-c2ccccc2F)n1/N=C/c1ccc[nH]1	0.194 µM
COC(=O)C[C@@H]1CC[C@@H]2[C@H](COc3ccc(NC(=O)c4ccc(C(F)(F)F)cc4)cc3C(=O)N2C)O1	12.1 µM
NC(Cc1ccc(C(F)(F)F)cc1)c1csc(NC(=O)Nc2ccccc2Cc2ccccc2)n1 (stereo not drawn)	17.6 µM
O=C(NC[C@@H]1N[C@@H](CO)[C@H]1c1ccc(C2=CCCCC2)cc1)c1cccc(F)c1	29.8 µM
C[C@@H]1CN([C@@H](C)CO)C(=O)c2cc(NS(=O)(=O)c3ccccc3)ccc2O[C@@H]1CN(C)Cc1ccc(C(=O)Nc2ccccc2N)cc1	9.16 µM
CN(C)c1ccc(C=c2c3ccccc3n3c2c2c([n+]3C)CCCC2)cc1	1.9 µM
Cn1ccc2cc(-c3ccc4ncnc(NCc5cccs5)c4c3)ccc21	4.12 µM

Compound	AC35
COc1ccccc1NC(=O)N1CCCCN2[C@H](CO)[C@H](c3ccc(-c4cccc(C)c4)cc3)[C@H]2C1	8.3 µM
Nc1nc(=S)c2[nH]cnc2[nH]1	2.5 µM
COc1ccc(CN(C)c2ncnc3sccc23)c(OC)c1OC	10.7 µM
C[C@@H]1CN([C@@H](C)CO)C(=O)c2cccc(N(C)C)c2O[C@@H]1CN(C)Cc1ccc(C(=O)Nc2ccccc2N)cc1	39.8 µM
COc1ccc(/C=C(/C(=O)c2cccs2)N2C=CC=CC2=C(C#N)C#N)cc1	37.2 µM
Cc1ccc(N2C(=O)c3cccc4c(N)ccc(c34)C2=O)c2cccnc12	< 0.03 µM
COc1cc2c(cc1OC)C(C)N(C(=O)c1cc(Cl)nc(Cl)c1)CC2 (stereo not drawn)	6.06 µM
CN(C[C@H]1N[C@@H](CO)[C@@H]1c1ccc(C2=CCCC2)cc1)C(=O)c1cccc(F)c1	3.48 µM
CC(C)(C)[S@](=O)N1Cc2cc(C(=O)NCC(F)(F)F)nc(-c3cccc(-c4cccc(F)c4)c3)c2[C@@H]1CCO	18.9 µM
O=C1c2ccc3c4c(ccc(c24)C(=O)N1c1cccc(O)c1)C(=O)N(c1cccc(O)c1)C3=O	5.35 µM
C[C@@H]1CN([C@@H](C)CO)C(=O)Cc2cc(NS(=O)(=O)c3cccs3)ccc2O[C@H]1CN(C)Cc1ccc(Cl)c(Cl)c1	3.76 µM
C[C@@H]1CN([C@H](C)CO)C(=O)c2cc(C#CCc3ccccc3)cnc2O[C@@H]1CN(C)Cc1cccc(F)c1	46.1 µM
COc1ccc(C(CCNCc2ccc(OC(C)C)cc2)C(C)C)cc1 (stereo not drawn)	15.2 µM
O=C(N/N=C/c1cnc(N2CCCCC2)s1)c1ccc(C(F)(F)F)cc1	56.8 µM
CCN1C/C(=C/c2ccc(N3CCOCC3)cc2)C(=O)/C(=C/c2ccc(N3CCOCC3)cc2)C1	5.5 µM
COc1ccc(/C=C2\SC(=S)N(CCCC(=O)NC3CCCC3)C2=O)cc1OC	38.5 µM
CCCN1C/C(=C/c2ccc3c(c2)OCO3)C(=O)/C(=C/c2ccc3c(c2)OCO3)C1	3.4 µM
CC1(C)N=C(N)N=C(N)N1c1ccc(OCCCOc2ccccc2)c(Cl)c1	2.61 µM
Cc1ccc(C(=O)CN2C(=O)c3ccccc3S2(=O)=O)cc1	1.97 µM
C(=N\Nc1ccc2ccccc2n1)/c1ccc2c(c1)OCCO2	0.728 µM
COC(=O)C[C@@H]1CC[C@@H]2[C@H](COc3ccc(NC(=O)c4ccc(F)c(F)c4)cc3C(=O)N2C)O1	64.7 µM
